Experimental data taken from EPA's ToxRefDB 2.

Columns and labels:
[1] = system: rat; settings: Subchronic oral toxicity in rodents, other, Gavage/Intubation, dose end: 90 day, group: systemic, systemic / hematology / erythrocyte (rbc) count differential / erythrocyte (rbc) + systemic / hematology / hematocrit (hct) / hematocrit (…
[2] = system: rat; settings: Subchronic oral toxicity in rodents, sprague dawley, Gavage/Intubation, dose end: 13 week, group: systemic
[3] = system: rat; settings: Subchronic dermal toxicity, sprague dawley, Topical, dose end: 13 week, group: systemic
[4] = system: rat; settings: Prenatal developmental toxicity study, sprague dawley, Oral, Gavage/Intubation, dose end: 19 GD
[5] = system: mouse; settings: Carcinogenicity; cd1; Oral; Feed; dose end: 78 week; group: systemic; systemic / organ weight / liver / nos + systemic / organ weight / liver / relative to body weight + systemic / pathology microscopic / liver…
[6] = system: mouse; settings: Subchronic oral toxicity in rodents, cd1, Feed, dose end: 13 week, group: systemic
[7] = system: dog; settings: Chronic toxicity, beagle, Oral, Feed, dose end: 52 week, group: systemic
[8] = system: rat; settings: Subchronic oral toxicity in rodents, sprague dawley, Feed, dose end: 13 week, group: systemic
[9] = system: rat; settings: Combined chronic toxicity/carcinogenicity; sprague dawley; Oral; Feed; dose end: 104 week; group: systemic; systemic / clinical chemistry / alanine aminotransferase (alt/sgpt) / alanine aminotransferase (alt/sgpt) + systemic / clinical chemistry / …
[10] = system: rat; settings: Multigenerational reproductive toxicity study, Charles River CD, Oral, Feed, dose end: 2 generation
[11] = system: mouse; settings: Combined chronic toxicity/carcinogenicity; Oral; Feed; dose end: 104 week; group: systemic; systemic / in life observation / water consumption / water consumption + systemic / pathology gross / full gross necropsy / abdominal cavity…
[12] = system: dog; settings: Subchronic oral toxicity in nonrodent, beagle, Feed, dose end: 90 day, group: systemic
[13] = system: dog; settings: Chronic toxicity, beagle, Oral, Feed, dose end: 52 week, group: systemic; remark: listed apart in the source
[14] = system: rat; settings: Subchronic oral toxicity in rodents, sprague dawley, Feed, dose end: 90 day, group: systemic
[15] = system: mouse; settings: Subchronic oral toxicity in rodents, other, Feed, dose end: 90 day, group: systemic
[16] = system: dog; settings: Subchronic oral toxicity in nonrodent, beagle, Feed, dose end: 100 day, group: systemic
[17] = system: rat; settings: Chronic toxicity, wistar, Oral, Feed, dose end: 24 month, group: systemic
[18] = system: rat; settings: Prenatal developmental toxicity study, wistar, Oral, Gavage/Intubation, dose end: 15 GD
[19] = system: mouse; settings: Carcinogenicity; other; Oral; Feed; dose end: 18 month; group: systemic; systemic / in life observation / body weight / body weight + systemic / in life observation / body weight / body weight gain
[20] = system: rat; settings: Multigenerational reproductive toxicity study, wistar, Oral, Feed, dose end: 2 generation
[21] = system: rat; settings: Carcinogenicity, other, Oral, Feed, dose end: 24 month, group: systemic
[22] = system: rat; settings: Subchronic oral toxicity in rodents, wistar, Feed, dose end: 3 month, group: systemic
[23] = system: dog; settings: Chronic toxicity; beagle; Oral; Feed; dose end: 371 day; group: systemic; systemic / clinical chemistry / alanine aminotransferase (alt/sgpt) / alanine aminotransferase (alt/sgpt) + systemic / clinical chemistry / …
[24] = system: dog; settings: Chronic toxicity, beagle, Oral, Feed, dose end: 373 day, group: systemic
[25] = system: mouse; settings: Subchronic oral toxicity in rodents, b6c3f1, Feed, dose end: 90 day, group: systemic
[26] = systemic / pathology microscopic / stomach / infiltration cellular + systemic / pathology gross / stomach / discolored + systemic / …
[27] = systemic / pathology microscopic / stomach / infiltration cellular + systemic / pathology gross / stomach / prominent limiting ridge + …
[28] = systemic / in life observation / clinical signs / erythema + systemic / in life observation / clinical signs / body surface staining + …
[29] = systemic / in life observation / clinical signs / erythema + systemic / pathology microscopic / skin / hyperplasia + systemic / pathology …
[30] = group: developmental, developmental / developmental malformation / bone / bent + developmental / developmental malformation / bone / incomplete ossification + …
[31] = group: maternal, systemic / in life observation / body weight / body weight gain + systemic / in life observation / clinical signs / lethargy + systemic / in…
[32] = systemic / clinical chemistry / alanine aminotransferase (alt/sgpt) / alanine aminotransferase (alt/sgpt) + systemic / clinical chemistry / …
[33] = systemic / pathology microscopic / liver / [other] + systemic / pathology microscopic / liver / hematopoietic cell proliferation + systemic…
[34] = systemic / organ weight / adrenal gland / absolute + systemic / organ weight / heart / absolute + systemic / organ weight / spleen / …
[35] = systemic / hematology / erythrocyte (rbc) count differential / erythrocyte (rbc)
[36] = group: offspring, systemic / in life observation / body weight / offspring (pup) weight + systemic / organ weight / liver / absolute + systemic / organ weight…
[37] = group: parental, systemic / organ weight / spleen / relative to body weight
[38] = group: reproductive, reproductive / reproductive performance / fertility / fertility
[39] = group: reproductive, reproductive / reproductive performance / fertility / fertility + reproductive / offspring survival early / birth index / live birth index
[40] = systemic / organ weight / ovary / absolute + systemic / organ weight / ovary / relative to body weight
[41] = systemic / clinical chemistry / cholesterol / cholesterol + systemic / organ weight / kidney / absolute + systemic / organ weight / kidney…
[42] = systemic / organ weight / liver / absolute + systemic / organ weight / liver / relative to body weight + systemic / pathology microscopic / …
[43] = systemic / pathology microscopic / liver / hypertrophy
[44] = systemic / pathology gross / prostate / reduced size
[45] = systemic / pathology microscopic / liver / adenoma/carcinoma combined + systemic / pathology microscopic / liver / carcinoma + systemic / in…
[46] = group: developmental, developmental / developmental malformation / bone / unossified + developmental / developmental malformation / ureter / hydroureter + …
[47] = group: maternal, systemic / in life observation / food consumption / food consumption + reproductive / reproductive performance / resorptions / resorptions…
[48] = group: offspring, systemic / in life observation / body weight / offspring (pup) weight + systemic / in life observation / body weight / offspring (pup) …
[49] = group: parental, systemic / in life observation / body weight / body weight + systemic / in life observation / body weight / body weight gain + systemic / in…
[50] = systemic / pathology microscopic / liver / polymorphism
[51] = systemic / clinical chemistry / albumin / albumin + systemic / clinical chemistry / creatinine / creatinine + systemic / clinical chemistry…
[52] = systemic / clinical chemistry / creatinine / creatinine
[53] = systemic / pathology gross / urinary bladder / foci
[54] = systemic / pathology microscopic / heart / vacuolization + systemic / pathology microscopic / liver / hypertrophy
[55] = systemic / pathology microscopic / heart / vacuolization + systemic / pathology microscopic / liver / hypertrophy + systemic / clinical …

[Na+].[O-][Cl+2]([O-])[O-] [Sodium chlorate]
LEL [1]: 1000 mg/kg/day
LOAEL [1]: 1000 mg/kg/day
NEL [1]: 100 mg/kg/day
NOAEL [1]: 100 mg/kg/day

OCCN1CN(CCO)CN(CCO)C1 [1,3,5-Triazine-1,3,5(2H,4H,6H)-triethanol]
NEL [2, 26]: 50 mg/kg/day
NOAEL [2, 26]: 50 mg/kg/day
LEL [2, 27]: 100 mg/kg/day
LOAEL [2, 27]: 100 mg/kg/day
LEL [3, 28]: 5 mg/kg/day
NEL [3, 28]: < 5 mg/kg/day
LOAEL [3, 29]: 50 mg/kg/day
NOAEL [3, 29]: 5 mg/kg/day

CCOC(=O)C(C)OC(=O)c1cc(Oc2ccc(C(F)(F)F)cc2Cl)ccc1[N+](=O)[O-] (stereo not given) [Lactofen]
LEL [4, 30]: 150 mg/kg/day
LOAEL [4, 30]: 150 mg/kg/day
NEL [4, 30]: 50 mg/kg/day
NOAEL [4, 30]: 50 mg/kg/day
LEL [4, 31]: 150 mg/kg/day
LOAEL [4, 31]: 150 mg/kg/day
NEL [4, 31]: 50 mg/kg/day
NOAEL [4, 31]: 50 mg/kg/day
LEL [5]: 1.4 mg/kg/day
LOAEL [5]: 1.4 mg/kg/day
NEL [5]: < 1.4 mg/kg/day
NOAEL [5]: < 1.4 mg/kg/day
LOAEL [6, 32]: 143 mg/kg/day
NOAEL [6, 32]: 28.6 mg/kg/day
LEL [6, 33]: 5.7 mg/kg/day
NEL [6, 33]: < 5.7 mg/kg/day
LEL [7, 34]: 0.79 mg/kg/day
NEL [7, 34]: < 0.79 mg/kg/day
NOAEL [7, 34]: 0.79 mg/kg/day
LOAEL ([7]; systemic / organ weight / adrenal gland / absolute + systemic / organ weight / thyroid gland / absolute): 3.96 mg/kg/day
LOAEL [8, 32]: 73.7 mg/kg/day
NOAEL [8, 32]: 14.1 mg/kg/day
LEL [8, 35]: 2.9 mg/kg/day
NEL [8, 35]: < 2.9 mg/kg/day
LEL [9]: 19 mg/kg/day
LOAEL [9]: 19 mg/kg/day
NEL [9]: 2 mg/kg/day
NOAEL [9]: 2 mg/kg/day
LEL [10, 36]: 26.7 mg/kg/day
LOAEL [10, 36]: 26.7 mg/kg/day
NEL [10, 36]: 2.7 mg/kg/day
NOAEL [10, 36]: 2.7 mg/kg/day
LOAEL ([10]; group: parental, systemic / in life observation / mortality / mortality): 32.9 mg/kg/day
NOAEL ([10]; group: parental, systemic / in life observation / mortality / mortality + systemic / in life observation / body weight / body weight + systemic / organ …): 3.3 mg/kg/day
LEL [10, 37]: 3.3 mg/kg/day
NEL [10, 37]: < 3.3 mg/kg/day
LEL [10, 38]: 26.7 mg/kg/day
LOAEL [10, 38]: 26.7 mg/kg/day
NEL [10, 39]: 2.7 mg/kg/day
NOAEL [10, 39]: 2.7 mg/kg/day

COC(=O)c1ccccc1CS(=O)(=O)NC(=O)Nc1nc(OC)cc(OC)n1 [Bensulfuron-methyl]
LEL [11]: 455 mg/kg/day
LOAEL [11]: 455 mg/kg/day
NEL [11]: 226 mg/kg/day
NOAEL [11]: 226 mg/kg/day
LOAEL [12, 32]: 340 mg/kg/day
NOAEL [12, 32]: 32.1 mg/kg/day
LEL [12, 40]: 3.5 mg/kg/day
NEL [12, 40]: < 3.5 mg/kg/day
LOAEL [13, 32]: 223 mg/kg/day
NEL [13, 32]: 1.4 mg/kg/day
NOAEL [13, 32]: 19.9 mg/kg/day
LEL ([13]; systemic / organ weight / spleen / absolute + systemic / organ weight / spleen / relative to body weight): 19.9 mg/kg/day
LOAEL [14, 41]: 474 mg/kg/day
NOAEL [14, 41]: 93 mg/kg/day
LEL [14, 42]: 7.5 mg/kg/day
NEL [14, 42]: < 7.5 mg/kg/day
LEL [15, 43]: 38.9 mg/kg/day
LOAEL [15, 43]: 387 mg/kg/day
NEL [15, 43]: < 38.9 mg/kg/day
NOAEL ([15]; systemic / pathology microscopic / liver / hypertrophy + systemic / organ weight / liver / absolute + systemic / organ weight / liver / …): 132 mg/kg/day

CC/C(=N\OC/C=C/Cl)C1=C(O)CC(C2CCOCC2)CC1=O (stereo not given) [Tepraloxydim]
LOAEL ([16]; systemic / organ weight / liver / absolute + systemic / organ weight / liver / relative to body weight): 63.3 mg/kg/day
NOAEL ([16]; systemic / organ weight / liver / absolute + systemic / organ weight / liver / relative to body weight + systemic / clinical chemistry / …): 12.9 mg/kg/day
LEL [16, 44]: 12.9 mg/kg/day
NEL [16, 44]: < 12.9 mg/kg/day
LOAEL [17, 45]: 154 mg/kg/day
NEL [17, 45]: 5 mg/kg/day
NOAEL [17, 45]: 29 mg/kg/day
LEL ([17]; systemic / pathology microscopic / liver / carcinoma): 29 mg/kg/day
LEL [18, 46]: 120 mg/kg/day
LOAEL [18, 46]: 120 mg/kg/day
NEL [18, 46]: 40 mg/kg/day
NOAEL [18, 46]: 40 mg/kg/day
LOAEL ([18]; group: maternal, systemic / in life observation / food consumption / food consumption): 360 mg/kg/day
LEL [18, 47]: 360 mg/kg/day
NEL [18, 47]: 120 mg/kg/day
NOAEL [18, 47]: 120 mg/kg/day
LEL [19]: 52 mg/kg/day
LOAEL [19]: 52 mg/kg/day
NEL [19]: < 52 mg/kg/day
NOAEL [19]: < 52 mg/kg/day
LEL [20, 48]: 267 mg/kg/day
LOAEL [20, 48]: 267 mg/kg/day
NEL [20, 48]: 50.3 mg/kg/day
NOAEL [20, 48]: 50.3 mg/kg/day
LEL [20, 49]: 253 mg/kg/day
LOAEL [20, 49]: 253 mg/kg/day
NEL [20, 49]: 50.9 mg/kg/day
NOAEL [20, 49]: 50.9 mg/kg/day
LEL ([21]; systemic / pathology microscopic / liver / eosinophilic focus + systemic / pathology microscopic / liver / infiltration cellular): 30 mg/kg/day
NEL ([21]; systemic / pathology microscopic / liver / eosinophilic focus + systemic / pathology microscopic / liver / infiltration cellular + systemic…): 5 mg/kg/day
LOAEL [21, 50]: 6 mg/kg/day
NOAEL [21, 50]: < 6 mg/kg/day
LOAEL [22, 51]: 223 mg/kg/day
NOAEL [22, 51]: 22 mg/kg/day
LEL [22, 52]: 22 mg/kg/day
NEL [22, 52]: < 22 mg/kg/day
LEL [23]: 248 mg/kg/day
LOAEL [23]: 248 mg/kg/day
NEL [23]: < 248 mg/kg/day
NOAEL [23]: < 248 mg/kg/day
LOAEL ([24]; systemic / clinical chemistry / cholesterol / cholesterol + systemic / clinical chemistry / creatinine / creatinine + systemic / clinical …): 56 mg/kg/day
LEL [24, 53]: 3 mg/kg/day
NEL [24, 53]: < 3 mg/kg/day
NOAEL ([24]; systemic / pathology gross / urinary bladder / foci + systemic / clinical chemistry / cholesterol / cholesterol + systemic / clinical …): 11.5 mg/kg/day
LEL [25, 54]: 310 mg/kg/day
LOAEL [25, 54]: 310 mg/kg/day
NEL [25, 55]: 82 mg/kg/day
NOAEL [25, 55]: 82 mg/kg/day
